The values that follow are results of earlier work, collected in US7534771B2, “Tricyclic-nucleoside prodrugs for treating viral infections” (SmithKline Beecham Corporation, priority 2005, dated 2009).

For this series the following is noted: patients treated at currently recommended doses.

Consider `NC(=O)c1ncn([C@@H]2O[C@H](CO)[C@@H](O)[C@H]2O)n1` [Ribavirin], for which the “patients with significant hemolysis” value is listed as 10-20%.
